“Also recorded” adds a separate entry of the source. Marks after values point to notes of the source that are not given here.
Tests used:
[1] = tested on: SKOV3 human ovarian cancer cells; experiment: Disruption of SKOV3 cell adhesion in confluent cultures; assay type: cell-based; parameters: key to Peptide Disrupts Adhesion of SKOV3 cells: +: yes; −: no; conditions: for Peptide Disrupts Adhesion of SKOV3 cells: Table 8 summary; for effect on SKOV3 cell adhesion: confluent cultures, concentration not given
Procedure: SKOV3 human ovarian cancer cells (kind gift from Dr. Riaz Farookhi, McGill University, Montreal, Quebec) were cultured in MEM containing 1.25 μg/ml Fungizone, 100 U/ml penicillin 100 μg/ml streptomycin, 0.1 mM nonessential amino acids, 2 mM L-glutamine, 10 μg/ml ml gentamicin and 10% fetal bovine serum. All culture reagents were purchased from GIBCO (Burlington, ON). To obtain confluent cell cultures, 100,000 cells per well were plated onto a 4 well slide (NalgeNunc, Naperville, Ill.) and incubated for 24 h at 37° C., in a humidified atmosphere (5% CO2).
(§1) Depending on their solubility, peptides were dissolved directly in culture medium and added to confluent cell cultures at the indicated concentration, or they were dissolved in dimethylformamide (DMF) to obtain a 100× concentrated solution or in water to obtain a 10× concentrated solution. The peptide stock solutions were further diluted with culture medium to a final working concentration and added to confluent cell cultures. Culture medium containing 1% solvent was used as a control. At the end of the treatment, cells were either examined by phase contrast microscopy, or fixed with 4% paraformaldehyde in PBS and stained with hematoxylin prior to light microscopic examination.
Confluent cultures of SKOV3 cells were incubated in the presence of individual peptides.

[2] = tested on: Human Umbilical Vein Endothelial Cells (HUVEC); experiment: Disruption of HUVEC adhesion; assay type: cell-based; conditions: 4.7 mg/ml
Procedure: Human Umbilical Vein Endothelial Cells (HUVEC) and Human Dermal Microvascular Endothelial Cells (HMVEC-d) were purchased from Cambrex Bio Science Walkersville, Inc. Clonetics EGM-2 and EGM-2-MV Bulletkits (Cambrex Bio Science Walkersville, Inc) were used to culture HUVEC and HMVEC-d respectively. Cells (40,000 per well) were plated onto a 4 well slide (NalgeNunc, Naperville, Ill.) and incubated at 37° C., in a humidified atmosphere (5% CO2).
as §1

[3] = target: T1, N-cadherin/Fc chimeric protein (Homo sapiens, UniProt P19022); experiment: Cadherin/Fc binding assay: phage ELISA on N-cadherin/Fc; parameters: key to ELISA Phage Binding to N-Cadherin/Fc Chimeric Protein 1.2 mM calcium / ELISA Phage Binding to N-Cadherin/Fc Chimeric Protein 2 mM EDTA / ELISA Phage Binding to Cadherin/Fc Chimeric Proteins N−: +: Phage bound to the chimeric protein; −: No phage bound to the chimeric protein; conditions: for ELISA Phage Binding to Cadherin/Fc Chimeric Proteins N−: Table 6, Ph.D.-C7C clones selected on E-cadherin/Fc
T1 construct: extracellular domain of human N-cadherin (Asp160-Ala724); purchased R&D Systems, Minneapolis, Minn
T1 sequence (P19022 160-724): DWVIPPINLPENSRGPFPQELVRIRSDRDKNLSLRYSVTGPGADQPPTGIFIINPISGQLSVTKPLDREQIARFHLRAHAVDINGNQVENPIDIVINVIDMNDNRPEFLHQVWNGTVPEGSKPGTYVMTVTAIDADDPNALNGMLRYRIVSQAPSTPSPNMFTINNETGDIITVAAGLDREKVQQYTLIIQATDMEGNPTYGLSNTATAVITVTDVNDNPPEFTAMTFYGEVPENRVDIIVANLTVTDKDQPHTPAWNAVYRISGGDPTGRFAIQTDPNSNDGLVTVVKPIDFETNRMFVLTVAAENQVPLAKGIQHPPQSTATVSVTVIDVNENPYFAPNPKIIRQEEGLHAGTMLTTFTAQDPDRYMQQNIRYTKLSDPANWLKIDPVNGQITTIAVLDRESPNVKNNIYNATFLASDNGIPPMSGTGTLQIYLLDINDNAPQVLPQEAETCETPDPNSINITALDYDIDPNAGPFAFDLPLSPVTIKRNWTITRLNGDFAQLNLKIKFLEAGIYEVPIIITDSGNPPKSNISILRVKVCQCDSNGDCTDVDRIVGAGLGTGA
Description: (§2) The peptide libraries, Ph.D.-C7C™ and Ph.D.-12™ (New England BioLabs) were used in this study. These libraries are composed of 2×10^9 randomized 7 amino acid sequences flanked by cysteine residues and linear 12 amino acid sequences, respectively. The amino acid sequences are incorporated into the minor coat protein, pIII, of M13 phage. The N-cadherin/Fc chimeric protein (R&D Systems, Minneapolis, Minn.) consists of the extracellular domain of human N-cadherin (Asp160-Ala724) and the Fc region of human IgG1. The E-cadherin/Fc chimeric protein (R&D Systems, Minneapolis, Minn.) consists of the extracellular domain of human E-cadherin (Asp155-Ile707) and the Fc region of human IgG1.
The binding of each clone to the cadherin/Fc chimeric proteins was confirmed by ELISA. Wells of ProBind microtiter plates (Falcon) were coated with either N-cadherin/Fc or E-cadherin/Fc chimeric protein (100 ng/well) or human IgG1 (which contains the Fc fragment) (100 ng/well). […] Non-coated wells were also used to exclude any phage that bound to the plastic surface. […] M13 phage without any insert were used to control the non-specific binding of the phage itself to the target. […] […] Horseradish peroxidase substrate, TMB (Sigma), was added to each well (100 μl/well and after color development the reaction was stopped by addition of 100 μl 0.5 M sulphuric acid to each well. The intensity of the color was measured at 450 nm.
(§3) The phage clones shown to bind to the N-cadherin/Fc chimeric protein by ELISA were also evaluated for their ability to bind to E-cadherin/Fc and VE-cadherin/Fc chimeric proteins. The phage clones shown to bind to the E-cadherin/Fc chimeric protein by ELISA were also evaluated for their ability to bind to N-cadherin/Fc and VE-cadherin/Fc chimeric proteins. The same ELISA protocol described in the previous section was used to perform this evaluation with the exception that the wells were coated with either 100 ng N-cadherin/Fc, E-cadherin/Fc or VE-cadherin/Fc chimeric protein (R&D Systems, Minneapolis, Minn.).

[4] = target: T2, E-cadherin/Fc chimeric protein (Homo sapiens, UniProt P12830); experiment: Cadherin/Fc binding assay: phage ELISA on E-cadherin/Fc; parameters: key: +: Phage bound to the chimeric protein; −: No phage bound to the chimeric protein
T2 construct: extracellular domain of human E-cadherin (Asp155-Ile707); purchased R&D Systems, Minneapolis, Minn
T2 sequence (P12830 155-707): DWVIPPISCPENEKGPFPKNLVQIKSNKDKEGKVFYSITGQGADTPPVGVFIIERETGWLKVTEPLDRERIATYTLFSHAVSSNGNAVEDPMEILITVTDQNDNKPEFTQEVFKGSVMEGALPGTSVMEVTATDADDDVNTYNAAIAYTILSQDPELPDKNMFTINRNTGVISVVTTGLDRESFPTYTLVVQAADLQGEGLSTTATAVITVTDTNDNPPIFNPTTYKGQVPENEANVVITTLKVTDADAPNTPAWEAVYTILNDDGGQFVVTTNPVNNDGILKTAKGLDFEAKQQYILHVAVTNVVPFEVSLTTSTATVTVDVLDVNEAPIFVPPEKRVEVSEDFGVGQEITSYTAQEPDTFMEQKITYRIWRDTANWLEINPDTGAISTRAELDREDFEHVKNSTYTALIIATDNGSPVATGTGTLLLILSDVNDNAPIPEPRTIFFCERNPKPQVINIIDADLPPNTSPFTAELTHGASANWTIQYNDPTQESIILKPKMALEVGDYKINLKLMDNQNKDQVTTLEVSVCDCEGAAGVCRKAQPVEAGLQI
Description: as §2
(§4) The binding of each clone to the cadherin/Fc chimeric proteins was confirmed by ELISA. Wells of ProBind microtiter plates (Falcon) were coated with either N-cadherin/Fc or E-cadherin/Fc chimeric protein (100 ng/well) or human IgG1 (which contains the Fc fragment) (100 ng/well). After blocking the nonspecific sites with TBS containing 3% BSA and 1.2 mM CaCl2 for 1 h at 37° C., phage clones (10^9 pfu) diluted in TBST containing 3% BSA and 1.2 mM CaCl2 (100 μl/well). Non-coated wells were also used to exclude any phage that bound to the plastic surface. After 1 h incubation at room temperature, wells were washed 3 times with TBST containing 3% BSA and 1.2 mM CaCl2. M13 phage without any insert were used to control the non-specific binding of the phage itself to the target. Monoclonal anti-M13 antibody conjugated to horseradish peroxidase (Amersham Biosciences, Piscataway, N.J.) was diluted in TBST containing 3% BSA and 1.2 mM CaCl2 (1:2,000) and added to each well (100 μl/well). After 1 h incubation at room temperature, wells were washed three times with TBST containing 3% BSA and 1.2 mM CaCl2 and once with TBS containing 1.2 mM CaCl2. Horseradish peroxidase substrate, TMB (Sigma), was added to each well (100 μl/well and after color development the reaction was stopped by addition of 100 μl 0.5 M sulphuric acid to each well. The intensity of the color was measured at 450 nm.
as §3

[5] = target: T3, VE-cadherin/Fc chimeric protein (Homo sapiens, UniProt P33151); experiment: Cadherin specificity: phage ELISA on VE-cadherin/Fc; assay type: binding; parameters: key: +: Phage bound to the chimeric protein; −: No phage bound to the chimeric protein
T3 construct: purchased R&D Systems, Minneapolis, Minn
T3 sequence (P33151 with tags, fused parts or gaps limits assumed, species assumed): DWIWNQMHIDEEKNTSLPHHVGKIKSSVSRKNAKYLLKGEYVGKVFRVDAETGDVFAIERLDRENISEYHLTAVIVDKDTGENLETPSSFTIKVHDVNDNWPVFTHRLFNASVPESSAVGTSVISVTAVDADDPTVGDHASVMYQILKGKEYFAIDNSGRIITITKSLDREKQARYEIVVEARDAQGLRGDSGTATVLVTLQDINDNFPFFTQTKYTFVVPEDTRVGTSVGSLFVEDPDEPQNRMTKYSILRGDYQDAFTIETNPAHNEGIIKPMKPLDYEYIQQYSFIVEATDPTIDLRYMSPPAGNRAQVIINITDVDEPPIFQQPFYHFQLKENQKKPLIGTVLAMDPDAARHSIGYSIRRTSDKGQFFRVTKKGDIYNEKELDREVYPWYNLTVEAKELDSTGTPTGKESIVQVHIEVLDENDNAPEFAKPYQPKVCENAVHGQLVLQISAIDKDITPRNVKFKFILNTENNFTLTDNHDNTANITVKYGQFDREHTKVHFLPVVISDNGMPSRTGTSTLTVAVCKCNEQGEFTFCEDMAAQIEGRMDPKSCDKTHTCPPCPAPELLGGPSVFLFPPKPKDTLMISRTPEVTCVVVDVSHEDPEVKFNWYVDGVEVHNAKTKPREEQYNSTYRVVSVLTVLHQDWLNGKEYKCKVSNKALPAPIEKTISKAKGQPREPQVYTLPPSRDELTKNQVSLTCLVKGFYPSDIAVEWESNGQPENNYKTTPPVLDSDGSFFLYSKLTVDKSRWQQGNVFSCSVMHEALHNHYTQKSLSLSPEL
Procedure: as §4, §3

[6] = Table 2, Ph.D.-C7C library clones
[7] = Table 6, Ph.D.-C7C clones selected on E-cadherin/Fc
[8] = Table 3, clones selected in the absence of calcium

Substance	ELISA Phage Binding to N-Cadherin/Fc Chimeric Protein 1.2 mM calcium [3, 6]	ELISA Phage Binding to N-Cadherin/Fc Chimeric Protein 2 mM EDTA [3, 6]	ELISA Phage Binding to Cadherin/Fc Chimeric Proteins E− [4, 6]	ELISA Phage Binding to Cadherin/Fc Chimeric Proteins VE− [5, 6]	ELISA Phage Binding to Cadherin/Fc Chimeric Proteins N− [3]	ELISA Phage Binding to Cadherin/Fc Chimeric Proteins E− [4, 7]	ELISA Phage Binding to Cadherin/Fc Chimeric Proteins VE− [5, 7]	other results
H-AELRVSSP-NH2 [reference compound]								Peptide Disrupts Adhesion of SKOV3 cells [1]: −; effect on SKOV3 cell adhesion [1]: had no biological activity
H-RYVCVGAH-NH2 [reference compound]								Peptide Disrupts Adhesion of SKOV3 cells [1]: −; effect on SKOV3 cell adhesion [1]: had no effect on cell adhesion
H-SWTLYTPSGQSK-(succinyl-PEG5000-OMe)—NH2 (H-SWTLYTPSGQSK-NH2; also: succinyl-PEG5000-OMe attached, site not given here)								activity on HUVEC adhesion [2]: strong activity; incubation time within which HUVEC adhesion was disrupted [2]: within one hour
WEVCLTEKC [Nc 15]	+	−	−	−				
WEVRLTEKC [Nc a3]	+	−	−	−				
WHTSWSDTY [Nc 19]	+	−	−	−				
WLQPYFPSY [Nc 1]	+*	−**	−	−				phage binding to N-cadherin/Fc chimeric protein by ELISA [3]: positive ELISA signal
WLQPYFPSY [Nc a5]	+	−	−	−				
WQFCYAQHC [Ec 2]					+	+	−	
WQMVLCPAC [Ec 4]					+	+	−	
WQVCVGAHC [NoCa11]								phage binding to N-cadherin/Fc chimeric protein by ELISA [3]: good ELISA signal; also recorded: strong ELISA signal; ELISA Phage Binding to N-Cadherin/Fc Chimeric Protein 1.2 mM calcium [3, 8]: +; ELISA Phage Binding to N-Cadherin/Fc Chimeric Protein 2 mM EDTA [3, 8]: +; ELISA Phage Binding to Cadherin/Fc Chimeric Proteins E− [4, 8]: −; ELISA Phage Binding to Cadherin/Fc Chimeric Proteins VE− [5, 8]: −
WQWCFKATC [Ec 21]					+	+	−	
WTFNFCTAC [Ec a5]					+	+	−	
WTMCYPDTC [Ec 7]					+	+*	−**	
WTVCPIGNC [Nc 8]	+	−	−	−				
WTWHWPPCC [Ec a22]					+	+	−	
WYVCVGAHC [NoCa1]								phage binding to N-cadherin/Fc chimeric protein by ELISA [3]: good ELISA signal; also recorded: strong ELISA signal; ELISA Phage Binding to N-Cadherin/Fc Chimeric Protein 1.2 mM calcium [3, 8]: +*; ELISA Phage Binding to N-Cadherin/Fc Chimeric Protein 2 mM EDTA [3, 8]: +; ELISA Phage Binding to Cadherin/Fc Chimeric Proteins E− [4, 8]: −**; ELISA Phage Binding to Cadherin/Fc Chimeric Proteins VE− [5, 8]: −

From patent US8603986B2, “Compounds and methods for modulating cadherin-mediated processes” (McGill University, priority 2005, dated 2013)
